{"source": "ChEMBL document CHEMBL1201862", "about": "“PubChem BioAssay data set” (2004)", "assay_in_all_cases": "NCI-60 cell line screen, 48 h", "key": {"SK-MEL-2": {"system": "SK-MEL-2"}, "COLO 205": {"system": "COLO 205"}, "OVCAR-4": {"system": "OVCAR-4"}, "A549": {"system": "A549"}, "CCRF-CEM": {"system": "CCRF-CEM"}, "UACC-62": {"system": "UACC-62"}, "DU-145": {"system": "DU-145"}, "OVCAR-8": {"system": "OVCAR-8"}, "Malme-3M": {"system": "Malme-3M"}, "IGROV-1": {"system": "IGROV-1"}, "NCI-H23": {"system": "NCI-H23"}, "A498": {"system": "A498"}, "HCT-15": {"system": "HCT-15"}, "MDA-MB-231": {"system": "MDA-MB-231"}, "PC-3": {"system": "PC-3"}, "SK-MEL-28": {"system": "SK-MEL-28"}, "Hs-578T": {"system": "Hs-578T"}, "HL-60": {"system": "HL-60"}, "SNB-19": {"system": "SNB-19"}, "RPMI-8226": {"system": "RPMI-8226"}, "SF-295": {"system": "SF-295"}, "SR": {"system": "SR"}, "NCI-H522": {"system": "NCI-H522"}, "UACC-257": {"system": "UACC-257"}, "SW-620": {"system": "SW-620"}, "BT-549": {"system": "BT-549"}, "SK-OV-3": {"system": "SK-OV-3"}, "CAKI-1": {"system": "CAKI-1"}, "HOP-92": {"system": "HOP-92"}, "KM12": {"system": "KM12"}, "SN12C": {"system": "SN12C"}, "MOLT-4": {"system": "MOLT-4"}, "HT-29": {"system": "HT-29"}, "U-251": {"system": "U-251"}, "HOP-62": {"system": "HOP-62"}, "HCT-116": {"system": "HCT-116"}, "SK-MEL-5": {"system": "SK-MEL-5"}, "786-0": {"system": "786-0"}, "OVCAR-5": {"system": "OVCAR-5"}, "ACHN": {"system": "ACHN"}, "SF-539": {"system": "SF-539"}, "MCF7": {"system": "MCF7"}, "M14": {"system": "M14"}, "MDA-N": {"system": "MDA-N"}, "T47D": {"system": "T47D"}, "NCI/ADR-RES": {"system": "NCI/ADR-RES"}, "RXF 393": {"system": "RXF 393"}, "SF-268": {"system": "SF-268"}, "NCI-H460": {"system": "NCI-H460"}, "EKVX": {"system": "EKVX"}, "MDA-MB-435": {"system": "MDA-MB-435"}, "K562": {"system": "K562"}, "NCI-H226": {"system": "NCI-H226"}, "OVCAR-3": {"system": "OVCAR-3"}, "SNB-75": {"system": "SNB-75"}, "UO-31": {"system": "UO-31"}}, "note": "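The compound was tested at five concentrations on cells cultured in 96-well plates, with a 48-hour exposure period. GI50 = concentration required for 50% inhibition of growth.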 Calls of active or inactive are those of the source. Rule as the data show it: active = GI50 up to about 1.1 µM and inactive = higher.", "data": [{"smiles": "CC1=C(C(N)=O)C(c2ccncc2)C(C#N)=C2SCC(=O)N12", "note": "(stereo unspecified)", "values": [{"measurement": "GI50", "setting": "SK-MEL-2", "result": "> 100 µM (inactive)"}, {"measurement": "GI50", "setting": "COLO 205", "result": "> 100 µM (inactive)"}, {"measurement": "GI50", "setting": "OVCAR-4", "result": "> 100 µM (inactive)"}, {"measurement": "GI50", "setting": "A549", "result": "> 100 µM (inactive)"}, {"measurement": "GI50", "setting": "CCRF-CEM", "result": "> 100 µM (inactive)"}, {"measurement": "GI50", "setting": "UACC-62", "result": "> 100 µM (inactive)"}, {"measurement": "GI50", "setting": "DU-145", "result": "> 100 µM (inactive)"}, {"measurement": "GI50", "setting": "OVCAR-8", "result": "> 100 µM (inactive)"}, {"measurement": "GI50", "setting": "Malme-3M", "result": "> 100 µM (inactive)"}, {"measurement": "GI50", "setting": "IGROV-1", "result": "> 100 µM (inactive)"}, {"measurement": "GI50", "setting": "NCI-H23", "result": "> 100 µM (inactive)"}, {"measurement": "GI50", "setting": "A498", "result": "> 100 µM (inactive)"}, {"measurement": "GI50", "setting": "HCT-15", "result": "> 100", "unit": "µM"}, {"measurement": "GI50", "setting": "MDA-MB-231", "result": "> 100 µM (inactive)"}, {"measurement": "GI50", "setting": "PC-3", "result": "> 100 µM (inactive)"}, {"measurement": "GI50", "setting": "SK-MEL-28", "result": "> 100 µM (inactive)"}, {"measurement": "GI50", "setting": "Hs-578T", "result": "> 100 µM (inactive)"}, {"measurement": "GI50", "setting": "HL-60", "result": "> 100 µM (inactive)"}, {"measurement": "GI50", "setting": "SNB-19", "result": "> 100 µM (inactive)"}, {"measurement": "GI50", "setting": "RPMI-8226", "result": "> 100 µM (inactive)"}, {"measurement": "GI50", "setting": "SF-295", "result": "> 100 µM (inactive)"}, {"measurement": "GI50", "setting": "SR", "result": "> 100 µM (inactive)"}, {"measurement": "GI50", "setting": "NCI-H522", "result": "> 100 µM (inactive)"}, {"measurement": "GI50", "setting": "UACC-257", "result": "> 100 µM (inactive)"}, {"measurement": "GI50", "setting": "SW-620", "result": "> 100 µM (inactive)"}, {"measurement": "GI50", "setting": "BT-549", "result": "> 100 µM (inactive)"}, {"measurement": "GI50", "setting": "SK-OV-3", "result": "> 100 µM (inactive)"}, {"measurement": "GI50", "setting": "CAKI-1", "result": "> 100 µM (inactive)"}, {"measurement": "GI50", "setting": "HOP-92", "result": "> 100 µM (inactive)"}, {"measurement": "GI50", "setting": "KM12", "result": "> 100 µM (inactive)"}, {"measurement": "GI50", "setting": "SN12C", "result": "> 100 µM (inactive)"}, {"measurement": "GI50", "setting": "MOLT-4", "result": "> 100 µM (inactive)"}, {"measurement": "GI50", "setting": "HT-29", "result": "> 100 µM (inactive)"}, {"measurement": "GI50", "setting": "U-251", "result": "> 100 µM (inactive)"}, {"measurement": "GI50", "setting": "HOP-62", "result": "> 100 µM (inactive)"}, {"measurement": "GI50", "setting": "HCT-116", "result": "> 100 µM (inactive)"}, {"measurement": "GI50", "setting": "SK-MEL-5", "result": "> 100 µM (inactive)"}, {"measurement": "GI50", "setting": "786-0", "result": "> 100 µM (inactive)"}, {"measurement": "GI50", "setting": "OVCAR-5", "result": "> 100 µM (inactive)"}, {"measurement": "GI50", "setting": "ACHN", "result": "> 100 µM (inactive)"}, {"measurement": "GI50", "setting": "SF-539", "result": "> 100 µM (inactive)"}, {"measurement": "GI50", "setting": "MCF7", "result": "> 100 µM (inactive)"}, {"measurement": "GI50", "setting": "M14", "result": "> 100 µM (inactive)"}, {"measurement": "GI50", "setting": "MDA-N", "result": "> 100 µM (inactive)"}, {"measurement": "GI50", "setting": "T47D", "result": "> 100 µM (inactive)"}, {"measurement": "GI50", "setting": "NCI/ADR-RES", "result": "> 100 µM (inactive)"}, {"measurement": "GI50", "setting": "RXF 393", "result": "> 100 µM (inactive)"}, {"measurement": "GI50", "setting": "SF-268", "result": "> 100 µM (inactive)"}, {"measurement": "GI50", "setting": "NCI-H460", "result": "> 100 µM (inactive)"}, {"measurement": "GI50", "setting": "EKVX", "result": "> 100 µM (inactive)"}, {"measurement": "GI50", "setting": "MDA-MB-435", "result": "> 100 µM (inactive)"}, {"measurement": "GI50", "setting": "K562", "result": "> 100 µM (inactive)"}, {"measurement": "GI50", "setting": "NCI-H226", "result": "> 100 µM (inactive)"}, {"measurement": "GI50", "setting": "OVCAR-3", "result": "> 100 µM (inactive)"}, {"measurement": "GI50", "setting": "SNB-75", "result": "> 100 µM (inactive)"}, {"measurement": "GI50", "setting": "UO-31", "result": "> 100 µM (inactive)"}]}]}
